Earlier results as cited in patent US20240044899A1, “BIOMARKERS FOR FIMEPINOSTAT THERAPY” (Curis, Inc, priority 2021, published 2024).

System: MYC-altered DLBCL/HGBL patients
Settings: Prospective phase 2; MYC IHC >40%; sample size 47; cited from earlier work

O=C(/C=C\n1cnc(-c2cc(C(F)(F)F)cc(C(F)(F)F)c2)n1)NNc1cnccn1 [Selinexor, reference compound]
ORR: 13%
